Read-outs that look alike come from different tables or passages of the source.
What was measured:
HOP-92 = experiment: NCI 60 antitumor screening (single dose / five doses); type: cell-based; conditions: Homo sapiens
HT29 = experiment: as above; type: cell-based, human; conditions: Homo sapiens
SW-620 = experiment: as above; type: cell-based, human; conditions: Homo sapiens
786-0 = experiment: as above; type: cell-based; conditions: Homo sapiens
UO-31 = experiment: as above; type: cell-based; conditions: Homo sapiens
T-47D = experiment: as above; type: cell-based; conditions: Homo sapiens, T47D; for inhibition at 10 µM: read-out: Growth inhibition percentage (GI %)
IDH2^R140Q = target: T1, IDH2^R140Q (Homo sapiens, UniProt P48735, R140Q); experiment: biochemical
T1 sequence (P48735 40-452 R140Q): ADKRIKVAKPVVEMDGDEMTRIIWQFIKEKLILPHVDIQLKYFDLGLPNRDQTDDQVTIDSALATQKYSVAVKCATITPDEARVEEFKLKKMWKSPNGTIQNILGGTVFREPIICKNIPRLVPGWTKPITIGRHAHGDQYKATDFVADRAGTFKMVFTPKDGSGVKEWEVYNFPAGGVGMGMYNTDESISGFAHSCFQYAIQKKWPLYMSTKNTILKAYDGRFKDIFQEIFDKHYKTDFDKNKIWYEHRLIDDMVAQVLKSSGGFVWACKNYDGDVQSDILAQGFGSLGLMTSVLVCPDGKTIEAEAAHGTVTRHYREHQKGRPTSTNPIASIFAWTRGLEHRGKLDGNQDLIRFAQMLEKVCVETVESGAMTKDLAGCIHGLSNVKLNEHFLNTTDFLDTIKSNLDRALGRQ

[1] = HOP-92 (non-small cell lung cancer), single dose 10 μM, read-out: Growth inhibition percentage (GI %)
[2] = HT-29, HT29 (colon cancer), single dose 10 μM, read-out: Growth inhibition percentage (GI %)
[3] = SW-620 (colon cancer), single dose 10 μM, read-out: Growth inhibition percentage (GI %)
[4] = 786-0, 786-0 (renal cancer), single dose 10 μM, read-out: Growth inhibition percentage (GI %)
[5] = UO-31 (renal cancer), single dose 10 μM, read-out: Growth inhibition percentage (GI %)
[6] = T-47D (breast cancer), single dose 10 μM
[7] = HOP-92, read-out: Growth inhibition percentage (GI %)
[8] = HT-29, read-out: Growth inhibition percentage (GI %)
[9] = SW-620, read-out: Growth inhibition percentage (GI %)
[10] = 786-0, read-out: Growth inhibition percentage (GI %)
[11] = UO-31, read-out: Growth inhibition percentage (GI %)

Oc1ccccc1/C=N/Nc1nc(N/N=C/c2ccccc2O)nc(N2CCOCC2)n1 [compound 6a, 2-[(1e)-(2-{4-[(E)-2-[(2-Hydroxyphenyl)methylidene]hydrazin-1-yl]-6-(morpholin-4-yl)-1,3,5-triazin-2-yl}hydrazin-1-ylidene)methyl]phenol]
inhibition at 10 µM (HOP-92; [1]): 87.2%
GI50 (HOP-92; HOP-92, five doses (0.01–100 μM), read-out: GI50): 1650 nM
GI50 (HT29; HT-29, HT29, five doses (0.01–100 μM), read-out: GI50): 5890 nM
inhibition at 10 µM (HT29; [2]): 65.8%
GI50 (SW-620; SW-620, SW-620, five doses (0.01–100 μM), read-out: GI50): 1780 nM
inhibition at 10 µM (SW-620; [3]): 61.5%
inhibition at 10 µM (786-0; [4]): 69.7%
GI50 (786-0; 786-0, five doses (0.01–100 μM), read-out: GI50): 710 nM
inhibition at 10 µM (UO-31; [5]): 80.2%
GI50 (UO-31; UO-31, five doses (0.01–100 μM), read-out: GI50): 370 nM
inhibition at 10 µM (T-47D; [6]): 53.9%
GI50 (T-47D; T-47D, five doses (0.01–100 μM), read-out: GI50): 3340 nM
IC50 (IDH2^R140Q): 373 ± 18.2 nM

Brc1ccccc1/C=N/Nc1nc(N/N=C/c2ccccc2Br)nc(N2CCOCC2)n1 [compound 6b, 2,4-Bis[(E)-2-[(2-bromophenyl)methylidene]hydrazin-1-yl]-6-(morpholin-4-yl)-1,3,5-triazine]
inhibition at 10 µM (HOP-92; [1]): -12.3%
inhibition at 10 µM (HT29; [2]): 26%
inhibition at 10 µM (SW-620; [3]): 3.31%
inhibition at 10 µM (786-0; [4]): 38.7%
inhibition at 10 µM (UO-31; [5]): 21.4%
inhibition at 10 µM (T-47D; [6]): 21%

O=[N+]([O-])c1cccc(/C=N/Nc2nc(N/N=C/c3cccc([N+](=O)[O-])c3)nc(N3CCOCC3)n2)c1 [compound 6f, 2-(Morpholin-4-yl)-4,6-bis[(E)-2-[(3-nitrophenyl)methylidene]hydrazin-1-yl]-1,3,5-triazine]
inhibition at 10 µM (HOP-92; [7]): 14.2%
inhibition at 10 µM (HT29; [8]): 42.2%
inhibition at 10 µM (SW-620; [9]): 18.4%
inhibition at 10 µM (786-0; [10]): 30.4%
inhibition at 10 µM (UO-31; [11]): 50.7%
inhibition at 10 µM (T-47D): 30.9%

Clc1cccc(/C=N/Nc2nc(N/N=C/c3cccc(Cl)c3Cl)nc(N3CCOCC3)n2)c1Cl [compound 6h, 2,4-Bis[(E)-2-[(2,3-Dichlorophenyl)methylidene]hydrazin-1-yl]-6-(morpholin-4-yl)-1,3,5-triazine]
inhibition at 10 µM (HOP-92; [1]): -5.67%
inhibition at 10 µM (HT29; [2]): 12.9%
inhibition at 10 µM (SW-620; [3]): -6.25%
inhibition at 10 µM (786-0; [4]): 1.86%
inhibition at 10 µM (UO-31; [5]): 16.1%
inhibition at 10 µM (T-47D; [6]): 44.7%

O=[N+]([O-])c1cc(/C=N/Nc2nc(N/N=C/c3ccc(Cl)c([N+](=O)[O-])c3)nc(N3CCOCC3)n2)ccc1Cl [compound 6i, 2,4-Bis[(E)-2-[(4-Chloro-3-nitrophenyl)methylidene]hydrazin-1-yl]-6-(morpholin-4-yl)-1,3,5-triazine]
inhibition at 10 µM (HOP-92; [7]): -20.3%
inhibition at 10 µM (HT29; [8]): -2.29%
inhibition at 10 µM (SW-620; [9]): -6.94%
inhibition at 10 µM (786-0; [10]): -8.76%
inhibition at 10 µM (UO-31; [11]): 22.3%
inhibition at 10 µM (T-47D): 0.85%

Oc1ccc(/C=N/Nc2nc(N/N=C/c3ccc(O)c(O)c3)nc(N3CCOCC3)n2)cc1O [compound 6j, 4-[(1e)-(2-{4-[(E)-2-[(3,4-Dihydroxyphenyl)methylidene]hydrazin-1-yl]-6-(morpholin-4-yl)-1,3,5-triazin-2-yl}hydrazin-1-ylidene)methyl]benzene-1,2-diol]
inhibition at 10 µM (HOP-92; [1]): -7.35%
inhibition at 10 µM (HT29; [2]): -12%
inhibition at 10 µM (SW-620; [3]): -3.6%
inhibition at 10 µM (786-0; [4]): -3.75%
inhibition at 10 µM (UO-31; [5]): 15.4%
inhibition at 10 µM (T-47D; [6]): 7.67%

C(=N\Nc1nc(N/N=C/c2ccc3c(c2)OCO3)nc(N2CCOCC2)n1)/c1ccc2c(c1)OCO2 [compound 6k, 2,4-Bis[(E)-2-(2H-1,3-Benzodioxol-5-ylmethylidene)hydrazin-1-yl]-6-(morpholin-4-yl)-1,3,5-triazine]
inhibition at 10 µM (HOP-92; [1]): 8.47%
inhibition at 10 µM (HT29; [2]): 51.7%
inhibition at 10 µM (SW-620; [3]): 29%
inhibition at 10 µM (786-0; [4]): 36.6%
inhibition at 10 µM (UO-31; [5]): 46.4%
inhibition at 10 µM (T-47D; [6]): 23.8%

Brc1ccccc1/C=N/Nc1nc(N/N=C/c2ccccc2Br)nc(N2CCCCC2)n1 [compound 7b, 2,4-Bis[(E)-2-[(2-Bromophenyl)methylidene]hydrazin-1-yl]-6-(piperidin-1-yl)-1,3,5-triazine]
inhibition at 10 µM (HOP-92; [1]): -33%
inhibition at 10 µM (HT29; [2]): -1.89%
inhibition at 10 µM (SW-620; [3]): -0.46%
inhibition at 10 µM (786-0; [4]): 1.09%
inhibition at 10 µM (UO-31; [5]): 7.3%
inhibition at 10 µM (T-47D; [6]): 11.2%

O=[N+]([O-])c1cccc(/C=N/Nc2nc(N/N=C/c3cccc([N+](=O)[O-])c3)nc(N3CCCCC3)n2)c1 [compound 7f, 2,4-Bis[(E)-2-[(3-Nitrophenyl)methylidene]hydrazin-1-yl]-6-(piperidin-1-yl)-1,3,5-triazine]
inhibition at 10 µM (HOP-92; [7]): 20.9%
inhibition at 10 µM (HT29; [8]): 36.3%
inhibition at 10 µM (SW-620; [9]): 16.5%
inhibition at 10 µM (786-0; [10]): -6.21%
inhibition at 10 µM (UO-31; [11]): 48.4%
inhibition at 10 µM (T-47D): 47.5%

Clc1cccc(/C=N/Nc2nc(N/N=C/c3cccc(Cl)c3Cl)nc(N3CCCCC3)n2)c1Cl [compound 7h, 2,4-Bis[(E)-2-[(2,3-Dichlorophenyl)methylidene]hydrazin-1-yl]-6-(piperidin-1-yl)-1,3,5-triazine]
inhibition at 10 µM (HOP-92; [1]): 13.8%
inhibition at 10 µM (HT29; [2]): 15.7%
inhibition at 10 µM (SW-620; [3]): 57.4%
inhibition at 10 µM (786-0; [4]): -1.71%
inhibition at 10 µM (UO-31; [5]): 6.76%
inhibition at 10 µM (T-47D; [6]): 51.7%

O=[N+]([O-])c1cc(/C=N/Nc2nc(N/N=C/c3ccc(Cl)c([N+](=O)[O-])c3)nc(N3CCCCC3)n2)ccc1Cl [compound 7i, 2,4-Bis[(E)-2-[(4-Chloro-3-nitrophenyl)methylidene]hydrazin-1-yl]-6-(piperidin-1-yl)-1,3,5-triazine]
inhibition at 10 µM (HOP-92; [7]): -23.1%
inhibition at 10 µM (HT29; [8]): 92.6%
inhibition at 10 µM (SW-620; [9]): 36.3%
inhibition at 10 µM (786-0; [10]): -8.84%
inhibition at 10 µM (UO-31; [11]): 52.5%
inhibition at 10 µM (T-47D): 51.8%

Oc1ccc(/C=N/Nc2nc(N/N=C/c3ccc(O)c(O)c3)nc(N3CCCCC3)n2)cc1O [compound 7j, 4-[(1e)-(2-{4-[(E)-2-[(3,4-Dihydroxyphenyl)methylidene]hydrazin-1-yl]-6-(piperidin-1-yl)-1,3,5-triazin-2-yl}hydrazin-1-ylidene)methyl]benzene-1,2-diol]
inhibition at 10 µM (HOP-92; [1]): -9.47%
inhibition at 10 µM (HT29; [2]): -13.4%
inhibition at 10 µM (SW-620; [3]): 6.35%
inhibition at 10 µM (786-0; [4]): -1.22%
inhibition at 10 µM (UO-31; [5]): 15.3%
inhibition at 10 µM (T-47D; [6]): 16.9%

C(=N\Nc1nc(N/N=C/c2ccc3c(c2)OCO3)nc(N2CCCCC2)n1)/c1ccc2c(c1)OCO2 [compound 7k, 2,4-Bis[(E)-2-(2H-1,3-Benzodioxol-5-ylmethylidene)hydrazin-1-yl]-6-(piperidin-1-yl)-1,3,5-triazine]
inhibition at 10 µM (HOP-92; [1]): 4.01%
inhibition at 10 µM (HT29; [2]): 61.8%
inhibition at 10 µM (SW-620; [3]): 17.6%
inhibition at 10 µM (786-0; [4]): 13.4%
inhibition at 10 µM (UO-31; [5]): 25.6%
inhibition at 10 µM (T-47D; [6]): 12.8%

C/C(=N\Nc1nc(N/N=C(\C)c2ccc([N+](=O)[O-])cc2)nc(N2CCOCC2)n1)c1ccc([N+](=O)[O-])cc1 [compound 8a, 2-(Morpholin-4-yl)-4,6-bis[(E)-2-[1–(4-nitrophenyl)ethylidene]hydrazin-1-yl]-1,3,5-triazine]
inhibition at 10 µM (HOP-92; [7]): 35.9%
inhibition at 10 µM (HT29; [8]): 19.4%
inhibition at 10 µM (SW-620; [9]): 4.48%
inhibition at 10 µM (786-0; [10]): 33.1%
inhibition at 10 µM (T-47D): 45.1%

O=C1Nc2ccc(Cl)cc2/C1=N\Nc1nc(N/N=C2/C(=O)Nc3ccc(Cl)cc32)nc(N2CCOCC2)n1 [compound 8b, (3E)-5-Chloro-3-[2–(4-{2-[(3E)-5-chloro-2-oxo-2,3-dihydro-1H-indol-3-ylidene]hydrazin-1-yl}6-(morpholin-4-yl)-1,3,5-triazin-2-yl)hydrazin-1-ylidene]-2,3-dihydro-1H-indol-2-one]
inhibition at 10 µM (HOP-92; [1]): 74%
inhibition at 10 µM (HT29; [2]): 8.9%
inhibition at 10 µM (SW-620; [3]): 25.7%
inhibition at 10 µM (786-0; [4]): 26.3%
inhibition at 10 µM (UO-31; [5]): 21.4%
inhibition at 10 µM (T-47D; [6]): 70.7%

COC(=O)C(Cc1ccccc1)Nc1nc(NC(Cc2ccccc2)C(=O)OC)nc(N2CCOCC2)n1 (stereo not drawn) [compound 8c, Methyl 2-({4-[(1-methoxy-1-oxo-3-phenylpropan-2-yl)amino]-6-(morpholin-4-yl)-1,3,5-triazin-2-yl}amino)-3-phenylpropanoate]
inhibition at 10 µM (HOP-92; [1]): -18.5%
inhibition at 10 µM (HT29; [2]): -0.61%
inhibition at 10 µM (SW-620; [3]): -11.7%
inhibition at 10 µM (786-0; [4]): -0.43%
inhibition at 10 µM (UO-31; [5]): 18.8%
inhibition at 10 µM (T-47D; [6]): -0.53%

O=C(NNc1nc(NNC(=O)c2ccccc2)nc(N2CCOCC2)n1)c1ccccc1 [compound 8d, N'-[4-(morpholin-4-yl)-6-(phenylhydrazido)-1,3,5-triazin-2-yl]benzohydrazide]
inhibition at 10 µM (HOP-92; [1]): -12.8%
inhibition at 10 µM (HT29; [2]): -12%
inhibition at 10 µM (SW-620; [3]): -4.44%
inhibition at 10 µM (786-0; [4]): -3.15%
inhibition at 10 µM (UO-31; [5]): 13.3%
inhibition at 10 µM (T-47D; [6]): -10.8%
